According to paper PMC7990796, “Efficacy of a Combined Antiplatelet Therapy Is Not Affected by a Simultaneous Binding of Cangrelor and PSB 0777 to Albumin” (Frontiers in Pharmacology, 2021):
Read-outs that look alike come from different tables or passages of the source.

Experiments:
[1] = tested on: platelets (platelet-rich plasma, isolated platelets); test: Inhibition of ADP-induced platelet activation (P-selectin/CD62P expression, flow cytometry); format: cell-based, human; conditions: 17 nM, 10 μM ADP; for decrease of ADP-dependent platelet activation: n = 5; for inhibition at 0.017 µM: Homo sapiens, Platelet, n = 6
Protocol: Human blood was obtained from consecutively recruited healthy volunteers (simple random non-stratified sampling): four men and seven women; mean age 25 ± 5 years. All individuals provided their written informed consent to participate in the study. The exclusion criteria were the same as described previously ([Wzorek et al., 2020]). The study was approved by the Human Studies Committee of the Medical University of Lodz (Poland) and was conducted in accordance with the guidelines established by the Declaration of Helsinki. Whole blood was collected into polypropylene tubes with a blood-to-acid citrate dextrose solution (ACD) ratio of 6:1 (vol:vol).
Human platelet-rich plasma (PRP) was prepared by centrifuging of anticoagulated whole blood at 190 x g for 12 min at 37°C. Platelet-poor plasma (PPP) was prepared by centrifuging the whole blood fraction left after removal of the PRP at 2500 x g for 12 min at 37°C. Platelet count in PRP was measured with automated haematology analyzer Sysmex XS-800i™ (Sysmex, Kobe, Japan) and adjusted to 1 × 10^8 cells per ml.
Suspensions of isolated platelets were obtained from PRP separated from anticoagulated whole blood containing 50 ng/ml PGE1. PRP was centrifuged at 800 x g for 15 min at 37°C to obtain a platelet pellet. Platelet pellet was immediately suspended in the Tyrode buffer (134 mM NaCl, 12 mM NaHCO3, 2.9 mM KCl, 0.34 mM Na2HPO4, 1 mM MgCl2, 10 mM HEPES, 5 mM glucose, pH 7.4) and diluted to a count 1 × 10^8 per ml, as described above.
The effect of plasma or HSA on inhibition of platelet activation by cangrelor was assessed by two-colour flow cytometry with the use of anti-CD61/PerCP (for platelet gating) and anti-CD62/PE (for detection of activated platelets). The antiplatelet activity of cangrelor was evaluated in PRP and suspensions of isolated platelets, when the effect of plasma was examined, or in isolated platelets containing 4% HSA, when the effect of albumin was studied. […] The activated platelets were stained with antibodies prior to fixation as described previously ([Wzorek et al., 2020]). A total of 10,000 events were acquired in each experiment using a FACSCanto II flow cytometer and surface expression of CD62P (P-selectin) in platelets was analysed using FACS/Diva v. 6.0 software (Becton-Dickinson, Franklin Lakes, NJ, United States).

[2] = tested on: platelet function in whole blood; design: method as in Boncler et al., 2018; conditions: ref Boncler et al., 2018; cited from earlier work
[3] = biological target: T1, human serum albumin (Homo sapiens, UniProt P02768); test: Synchronous fluorescence spectra of HSA; format: binding; design: purchased Sigma (St. Louis, MO, United States); conditions: 0‒38.5 μM
T1 sequence (P02768 25-609): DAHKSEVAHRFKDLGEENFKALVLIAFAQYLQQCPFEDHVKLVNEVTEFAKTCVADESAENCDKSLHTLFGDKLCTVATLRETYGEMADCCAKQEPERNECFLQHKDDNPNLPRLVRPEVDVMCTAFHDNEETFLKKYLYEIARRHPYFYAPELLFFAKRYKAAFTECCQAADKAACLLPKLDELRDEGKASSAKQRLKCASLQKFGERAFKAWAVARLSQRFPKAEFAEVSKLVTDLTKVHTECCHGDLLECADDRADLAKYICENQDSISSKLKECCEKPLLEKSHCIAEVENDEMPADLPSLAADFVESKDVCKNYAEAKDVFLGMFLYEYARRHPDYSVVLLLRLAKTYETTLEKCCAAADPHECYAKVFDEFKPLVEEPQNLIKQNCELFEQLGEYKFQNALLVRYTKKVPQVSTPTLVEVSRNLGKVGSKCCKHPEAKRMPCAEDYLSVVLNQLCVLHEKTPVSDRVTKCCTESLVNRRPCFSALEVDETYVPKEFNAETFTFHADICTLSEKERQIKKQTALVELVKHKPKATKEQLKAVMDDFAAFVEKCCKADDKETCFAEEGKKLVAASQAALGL
Protocol: (§1) The fluorescence measurements for albumin-drug complexes were performed using a LS50B spectrofluorometer (Perkin Elmer, Waltham, MA, United States) equipped with 1.0 cm quartz cell. The fluorescence spectra for HSA solution (2.5 µM in 0.1 M phosphate buffer, pH 7.4) were recorded in the range of wavelength from 250 to 500 nm, with the excitation at 280 nm and the emission set at 350 nm. The slit widths for excitation and emission beams were set to 5 and 10 nm, respectively. The Perkin-Elmer FL WinLab software v. 4.00.03 was used to collect the measured data. An appropriate buffer blank spectrum was subtracted from the measured spectra for fluorescence background correction. The optical density of HSA solution was below 0.1 and within the albumin concentration range of 0‐2.5 µM we observed a linear relationship between protein concentration and fluorescence intensity (p < 0.0001, R^2 = 0.995). In consequence, the albumin fluorescence was not corrected for the inner filter effect. All measurements, except a thermodynamic analysis of the binding of antiplatelet compounds to HSA were performed at 25°C after 30 s incubation of a sample with the examined compound. Stock and working solutions of all compounds used in the experiments were prepared in PBS buffer, pH 7.4. The protein concentration was determined by BCA method ([Smith et al., 1985]).
To monitor changes in the polarity around the tyrosine and tryptophan residues of HSA evoked by the examined compounds, the synchronous fluorescence spectra of HSA (Δλ 15 nm and Δλ 60 nm) were recorded in the presence of increasing concentrations of PSB 0777 and cangrelor (0‒38.5 μM with 4 μM intervals).

[4] = biological target: T1, human serum albumin; test: Fluorescence quenching of HSA in the presence of a competitor (warfarin or cangrelor); format: binding; design: purchased Sigma (St. Louis, MO, United States); conditions: for Kd: mean [95% CI], n = 5–6
Protocol: as §1
[…]. [Chaves et al., 2018]; [Manjushree and Revanasiddappa, 2019]). […].
Furthermore, to determine whether one antiplatelet compound could be displaced from HSA by the other, the binding site marker experiments were repeated, i.e. by titration of HSA with PSB 0777 (0‒38.5 µM) in the presence of 2.5 µM cangrelor, instead of a marker.

[5] = biological target: T1, human serum albumin; test: Surface plasmon resonance binding to immobilized HSA (Biacore X)
Protocol: Briefly, 100 µg of HSA was dissolved in 1 ml of 10 mM sodium acetate buffer, pH 4.0, and immobilized on the flow cell 1 of the sensor chip surface. No protein was immobilized on the flow cell 2, which was used as a control. […] The curves from three independent experiments were analyzed by global curve fitting of the entire data set using the Langmuir binding model with the BIAevaluation 4.1.1 software (Biacore AG, Uppsala, Sweden).

[6] = biological target: T1, human serum albumin; test: Fluorescence quenching of HSA (Stern-Volmer, saturation binding, van't Hoff analysis); conditions: for Number of binding sites n / Kd: mean [95% CI]; for KA: KA = 1/KD; for decrease of HSA fluorescence: 2.5 µM HSA; for ΔH^θ / ΔS^θ: van't Hoff plot, 292, 302, 312 K
Protocol: The fluorescence measurements for albumin-drug complexes were performed using a LS50B spectrofluorometer (Perkin Elmer, Waltham, MA, United States) equipped with 1.0 cm quartz cell. […] The slit widths for excitation and emission beams were set to 5 and 10 nm, respectively. The Perkin-Elmer FL WinLab software v. 4.00.03 was used to collect the measured data. An appropriate buffer blank spectrum was subtracted from the measured spectra for fluorescence background correction. […] In consequence, the albumin fluorescence was not corrected for the inner filter effect. All measurements, except a thermodynamic analysis of the binding of antiplatelet compounds to HSA were performed at 25°C after 30 s incubation of a sample with the examined compound. Stock and working solutions of all compounds used in the experiments were prepared in PBS buffer, pH 7.4.
To obtain the binding parameters: dissociation constant (KD) and the number of binding sites per protein molecule (n), the experimental data were fit to a saturation binding curve using nonlinear regression analysis.
The free energy change was estimated from the following relationship Eq. 4: ΔG^θ=ΔH^θ−TΔS^θ (4)

[7] = tested on: HSA; conditions: 2005, cited from earlier work
[8] = biological target: T1, human serum albumin; design: purchased Sigma (St. Louis, MO, United States); method as in Boncler et al., 2018; Wzorek et al., 2020; conditions: SPR; ref Boncler et al., 2018; Wzorek et al., 2020; read-out: affinity of binding to HSA (SPR); cited from earlier work
[9] = concentration range 0–5 μM, 25°C
[10] = highest drug concentration 38.5 µM, n = 3

SMILES	mean red shift of emission peak ([3]; Δλ 15 nm (tyrosine))	mean red shift of emission peak ([3]; Δλ 60 nm (tryptophan))	increase of dissociation constant in the presence of competitor compared to control ([4]; competitor warfarin)	n with competitor ([4]; competitor warfarin 2.5 µM)	n without competitor ([4]; control of the warfarin series)	Number of binding sites n ([6]; 0‒38.5 µM, n = 3)	ΔG^θ ([6]; 292 K)	ΔG^θ ([6]; 302 K)	KA ([6]; 302 K)	ΔG^θ ([6]; 312 K)	KA ([6]; 312 K)	decrease of HSA fluorescence [6, 9]	decrease of HSA fluorescence [6, 10]	ΔH^θ [6]	ΔS^θ [6]	further results
CSCCNc1nc(SCCC(F)(F)F)nc2c1ncn2[C@@H]1O[C@H](COP(=O)(O)OP(=O)(O)C(Cl)(Cl)P(=O)(O)O)[C@@H](O)[C@H]1O [cangrelor]	0.3 nm	2.1 nm	2 fold	1.39 [−0.07 to 2.85]	1.10 [0.67‒1.52]	0.99 [−0.29 to 2.27]	-27.29 kJ/mol	-28.50 kJ/mol	10.31 [0.20‒6.97] × 10^4 [M^−1]	-29.71 kJ/mol	8.47 [0.19‒5.45] × 10^4 [M^−1]	40%	75%	8.06 kJ/mol	121.01 J/mol * K	decrease of ADP-dependent platelet activation ([1]; isolated platelets (compared with PRP)): 95%; decrease of ADP-dependent platelet activation ([1]; platelet-rich plasma): 77%; inhibition at 0.017 µM ([1]; control isolated platelets without HSA): 97%; inhibition at 0.017 µM ([1]; isolated platelets with 4% HSA): 74%; IC50 [2]: 17 nM; Kd ([4]; competitor warfarin 2.5 µM, read-out: KD with competitor): 16.8 µM; Kd ([4]; control of the warfarin series, read-out: KD without competitor): 8.3 µM; Kd ([5]; KA (equilibrium association constant), obtained from the binding rate constants): 16.3 µM; koff ([5]; human, pH 7.4): 0.0573 ± 0.000323 s⁻¹; kon ([5]; human, pH 7.4): 2820 ± 1.4e+06 M⁻¹ s⁻¹; Kd ([6]; 0‒38.5 µM, nonlinear regression, n = 3): 10.9 µM; Kd ([6]; 292 K, n = 3): 14.5 µM; Kd ([6]; 302 K, n = 3): 9.7 µM; Kd ([6]; 312 K, n = 3): 11.8 µM
CC(C)Cc1ccc(C(C)C(=O)O)cc1 (centres unmarked) [ibuprofen]	–	–	–	–	–	–	–	–	–	–	–	–	–	–	–	KA (binding constant) reported earlier ([7]; used in the racemic form, ref Dufour and Dangles): 10^5–10^6 M^−1
CC(=O)CC(c1ccccc1)c1c(O)c2ccccc2oc1=O (centres unmarked) [warfarin]	–	–	–	–	–	–	–	–	–	–	–	–	–	–	–	KA reported earlier ([7]; ref Yamasaki et al., 1996, Watanabe et al., 2001, Dufour and Dangles): 10^4–10^5 M^−1
Nc1nc(SCCc2ccc(S(=O)(=O)O)cc2)nc2c1ncn2[C@@H]1O[C@H](CO)[C@@H](O)[C@H]1O [PSB 0777]	0.5 nm	0.8 nm	1.4 fold	0.59 [0.19‒0.99]	0.69 [0.51‒0.88]	0.83 [−0.22 to 1.87]	-27.41 kJ/mol	-28.17 kJ/mol	6.43 [−5.24 to 1.99] × 10^4 [M^−1]	-28.94 kJ/mol	7.50 [−0.90 to 3.91] × 10^4 [M^−1]	25%	70%	-5.06 kJ/mol	76.49 J/mol * K	increase of dissociation constant in the presence of competitor compared to control ([4]; competitor cangrelor): 1.2 fold; n with competitor ([4]; competitor cangrelor 2.5 µM): 0.65 [0.39‒0.92]; n without competitor ([4]; control of the cangrelor series): 0.61 [0.32‒0.89]; Kd [8]: 80.6 µM
